Data from patent US20240239861A1, “GLUCAGON-RECEPTOR SELECTIVE POLYPEPTIDES AND METHODS OF USE THEREOF” (i2O Therapeutics, Inc., priority 2016, published 2024).
Where a SMILES comes first, the peptide text is derived from it. [ ]: non-standard residue; d: D form. Aib = CC(C)(N)C(=O)O

Tests used:
[1] = Solubility in water or saline at room temperature, visual inspection; format: physicochemical; details: Solubility in water mg/ml
From the text: Samples were visually inspected for clarity of the sample, any appearance of turbidity or haziness.

human GCGR = human GCGR (Homo sapiens, UniProt P47871); assay: Peptide-receptor mediated cAMP accumulation (LANCE Ultra cAMP) in CHO-K1 cells transfected with human GCGR; format: cell-based
human GCGR, sequence (P47871 26-477): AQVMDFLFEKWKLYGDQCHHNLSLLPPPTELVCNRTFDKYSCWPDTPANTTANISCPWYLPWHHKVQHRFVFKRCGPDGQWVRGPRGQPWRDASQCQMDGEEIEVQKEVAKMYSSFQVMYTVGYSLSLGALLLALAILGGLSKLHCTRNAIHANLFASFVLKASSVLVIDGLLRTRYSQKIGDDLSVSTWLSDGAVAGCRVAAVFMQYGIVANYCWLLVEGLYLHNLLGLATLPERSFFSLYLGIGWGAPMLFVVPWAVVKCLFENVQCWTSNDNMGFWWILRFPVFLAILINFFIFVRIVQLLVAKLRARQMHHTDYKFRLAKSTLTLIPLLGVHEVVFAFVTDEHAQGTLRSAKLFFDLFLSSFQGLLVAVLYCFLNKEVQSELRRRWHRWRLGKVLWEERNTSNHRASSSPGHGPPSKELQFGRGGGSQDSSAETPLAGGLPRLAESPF

in vivo = details: male, rat
human GLP-1R = human GLP-1R (Homo sapiens, UniProt P43220); assay: Peptide-receptor mediated cAMP accumulation (LANCE Ultra cAMP) in CHO-K1 cells transfected with human GLP-1R; format: cell-based
human GLP-1R, sequence (P43220 24-463): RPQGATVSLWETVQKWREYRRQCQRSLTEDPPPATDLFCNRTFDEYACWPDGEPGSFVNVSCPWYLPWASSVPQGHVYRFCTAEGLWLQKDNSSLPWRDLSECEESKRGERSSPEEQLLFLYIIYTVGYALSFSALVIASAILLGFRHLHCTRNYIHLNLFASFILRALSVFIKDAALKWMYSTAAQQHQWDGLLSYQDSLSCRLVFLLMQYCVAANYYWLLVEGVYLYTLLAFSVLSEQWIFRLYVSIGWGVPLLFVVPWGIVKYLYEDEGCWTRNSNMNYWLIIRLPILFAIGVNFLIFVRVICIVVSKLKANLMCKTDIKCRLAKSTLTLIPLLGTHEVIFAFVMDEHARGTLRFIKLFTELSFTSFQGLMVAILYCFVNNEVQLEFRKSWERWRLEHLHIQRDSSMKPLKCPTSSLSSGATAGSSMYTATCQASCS

[2] = Stability in water or saline at 37° C. and room temperature, 30 days, LC/MS and HPLC purity; format: physicochemical
From the text: Samples were withdrawn at a regular interval for 30 days and analyzed by LC/MS and HPLC for determination of purity and mass of the degradation product.

[3] = hGLP1 pEC50 (cAMP mean (n = 3): 11 point curve starting at 1 nM, Table 3)
[4] = hGLP1 pEC50 (cAMP) mean (n = 3): 11 point curve starting at 1 nM, Table 2B

Structure (SMILES)	solubility [1] [mg/mL]	EC50 (human GCGR; Table 2A) [nM]	hGCGR pEC50 (cAMP mean (n = 3): 11 point curve starting at 1 nM) (human GCGR; Table 3)	clearance (in vivo) [mL/min/kg]	CL (FIGURE 2B) [mL/min/kg]	EC50 (human GLP-1R; [3]) [nM]	EC50 (human GLP-1R; hGLP1 pEC50 (cAMP) mean (n = 9): 11 point curve starting at 500 uM, Table 2A) [nM]	Stability 1 mg/ml in water at 37 degC [2] [%]	EC50 (human GLP-1R; [4]) [nM]	CL (FIGURE 2A) [mL/min/kg]	EC50 (human GCGR; Table 2B) [nM]
CC(C)C[C@H](NC(=O)[C@H](Cc1ccc(O)cc1)NC(=O)[C@H](CCCCN)NC(=O)[C@H](CO)NC(=O)[C@H](Cc1ccc(O)cc1)NC(=O)[C@H](CC(=O)O)NC(=O)[C@H](CO)NC(=O)[C@@H](NC(=O)[C@H](Cc1ccccc1)NC(=O)[C@@H](NC(=O)CNC(=O)[C@H](Cc1c[nH]cn1)NC(=O)[C@H](CO)NC(=O)[C@@H](N)Cc1ccc(O)cc1)[C@@H](C)O)[C@@H](C)O)C(=O)N[C@@H](CC(=O)O)C(=O)N[C@@H](CO)C(=O)N[C@@H](C)C(=O)N[C@@H](CCCNC(=N)N)C(=O)N[C@@H](C)C(=O)N[C@@H](CCC(N)=O)C(=O)N[C@@H](CCC(=O)O)C(=O)N[C@@H](Cc1ccccc1)C(=O)N[C@H](C(=O)N[C@@H](CCCCN)C(=O)N[C@@H](Cc1c[nH]c2ccccc12)C(=O)N[C@@H](CC(C)C)C(=O)N[C@@H](CCC(=O)O)C(=O)N[C@@H](CC(=O)O)C(=O)N[C@@H](CCC(=O)O)C(=O)N1CCC[C@H]1C(=O)N[C@@H](CO)C(=O)N[C@@H](CO)C(=O)NCC(=O)N[C@@H](C)C(=O)N1CCC[C@H]1C(=O)N1CCC[C@H]1C(=O)N1CCC[C@H]1C(=O)N[C@@H](CO)C(N)=O)C(C)C [Compound A5] (H-YSHGTFTSDYSKYLDSARAQEFVKWLEDEPSSGAPPPS-NH2; N-terminus assumed)	> 200	0.00158	11.8	11.7	22.6 ± 0.6	1580	1580	>94			
CC(C)C[C@H](NC(=O)[C@H](Cc1ccc(O)cc1)NC(=O)[C@H](CCCCN)NC(=O)[C@H](CO)NC(=O)[C@H](Cc1ccc(O)cc1)NC(=O)[C@H](CC(=O)O)NC(=O)[C@H](CO)NC(=O)[C@@H](NC(=O)[C@H](Cc1ccccc1)NC(=O)[C@@H](NC(=O)CNC(=O)[C@H](Cc1c[nH]cn1)NC(=O)[C@H](CO)NC(=O)[C@@H](N)Cc1ccc(O)cc1)[C@@H](C)O)[C@@H](C)O)C(=O)N[C@@H](CC(=O)O)C(=O)N[C@@H](C)C(=O)N[C@@H](C)C(=O)N[C@@H](CCCNC(=N)N)C(=O)N[C@@H](C)C(=O)N[C@@H](CCC(N)=O)C(=O)N[C@@H](CCC(=O)O)C(=O)N[C@@H](Cc1ccccc1)C(=O)N[C@H](C(=O)N[C@@H](CCCCN)C(=O)N[C@@H](Cc1c[nH]c2ccccc12)C(=O)N[C@@H](CC(C)C)C(=O)N[C@@H](CCC(=O)O)C(=O)N[C@@H](CC(=O)O)C(=O)N[C@@H](CCC(=O)O)C(=O)N1CCC[C@H]1C(=O)N[C@@H](CO)C(=O)N[C@@H](CO)C(=O)NCC(=O)N[C@@H](C)C(=O)N1CCC[C@H]1C(=O)N1CCC[C@H]1C(=O)N1CCC[C@H]1C(=O)N[C@@H](CO)C(=O)O)C(C)C [Compound A97] (H-YSHGTFTSDYSKYLDAARAQEFVKWLEDEPSSGAPPPS-OH; N-terminus assumed)	> 200			18.9		> 1		>59	> 1		
CC(C)C[C@H](NC(=O)[C@H](Cc1c[nH]c2ccccc12)NC(=O)[C@H](CCCCN)NC(=O)[C@@H](NC(=O)[C@H](Cc1ccccc1)NC(=O)[C@H](CCC(=O)O)NC(=O)[C@H](CCC(N)=O)NC(=O)[C@H](C)NC(=O)[C@H](CCCNC(=N)N)NC(=O)[C@H](CCCCN)NC(=O)[C@H](CO)NC(=O)[C@H](CCC(=O)O)NC(=O)[C@H](CC(C)C)NC(=O)[C@H](CC(C)C)NC(=O)[C@H](CCCNC(=N)N)NC(=O)[C@@H](NC(=O)[C@H](Cc1ccc(O)cc1)NC(=O)[C@H](CC(=O)O)NC(=O)[C@H](CO)NC(=O)[C@@H](NC(=O)[C@H](Cc1ccccc1)NC(=O)[C@@H](NC(=O)CNC(=O)[C@H](Cc1c[nH]cn1)NC(=O)[C@H](CO)NC(=O)[C@@H](N)Cc1ccc(O)cc1)[C@@H](C)O)[C@@H](C)O)[C@@H](C)O)C(C)C)C(=O)N[C@@H](CCC(=O)O)C(=O)N[C@@H](CC(=O)O)C(=O)N[C@@H](CCC(=O)O)C(=O)N1CCC[C@H]1C(=O)N[C@@H](CO)C(=O)N[C@@H](CO)C(=O)NCC(=O)N[C@@H](C)C(=O)N1CCC[C@H]1C(=O)N1CCC[C@H]1C(=O)N1CCC[C@H]1C(=O)N[C@@H](CO)C(=O)O [Compound A98] (H-YSHGTFTSDYTRLLESKRAQEFVKWLEDEPSSGAPPPS-OH; N-terminus assumed)	> 200					> 1		>75	> 1	51.5 ± 13.4	
CC(C)C[C@H](NC(=O)[C@H](Cc1ccc(O)cc1)NC(=O)[C@H](CCCCN)NC(=O)[C@H](CO)NC(=O)[C@H](Cc1ccc(O)cc1)NC(=O)[C@H](CC(=O)O)NC(=O)[C@H](CO)NC(=O)[C@@H](NC(=O)[C@H](Cc1ccccc1)NC(=O)[C@@H](NC(=O)CNC(=O)[C@H](Cc1c[nH]cn1)NC(=O)[C@H](CO)NC(=O)[C@@H](N)Cc1ccc(O)cc1)[C@@H](C)O)[C@@H](C)O)C(=O)N[C@@H](CC(=O)O)C(=O)NC(C)(C)C(=O)N[C@@H](CCCCN)C(=O)N[C@@H](CCCNC(=N)N)C(=O)N[C@@H](C)C(=O)N[C@@H](CCC(N)=O)C(=O)N[C@@H](CCC(=O)O)C(=O)N[C@@H](Cc1ccccc1)C(=O)N[C@H](C(=O)NC(C)(C)C(=O)N[C@@H](Cc1c[nH]c2ccccc12)C(=O)N[C@@H](CC(C)C)C(=O)N[C@@H](CCC(=O)O)C(=O)N[C@@H](CC(=O)O)C(=O)N[C@@H](CCC(=O)O)C(=O)N1CCC[C@H]1C(=O)N[C@@H](CO)C(=O)N[C@@H](CO)C(=O)NCC(=O)N[C@@H](C)C(=O)N1CCC[C@H]1C(=O)N1CCC[C@H]1C(=O)N1CCC[C@H]1C(=O)N[C@@H](CO)C(=O)O)C(C)C [Compound A99]	> 200			23		> 1		>64	> 1	22.3 ± 1.9	
CC(C)C[C@H](NC(=O)[C@H](Cc1ccc(O)cc1)NC(=O)[C@H](CCCCN)NC(=O)[C@H](CO)NC(=O)[C@H](Cc1ccc(O)cc1)NC(=O)[C@H](CC(=O)O)NC(=O)[C@H](CO)NC(=O)[C@@H](NC(=O)[C@H](Cc1ccccc1)NC(=O)[C@@H](NC(=O)CNC(=O)[C@H](Cc1c[nH]cn1)NC(=O)[C@H](CO)NC(=O)[C@@H](N)Cc1ccc(O)cc1)[C@@H](C)O)[C@@H](C)O)C(=O)N[C@@H](CC(=O)O)C(=O)NC(C)(C)C(=O)N[C@@H](CCCCN)C(=O)N[C@@H](CCCNC(=N)N)C(=O)N[C@@H](C)C(=O)N[C@@H](CCC(N)=O)C(=O)N[C@@H](CCC(=O)O)C(=O)N[C@@H](Cc1ccccc1)C(=O)N[C@H](C(=O)NC(C)(C)C(=O)N[C@@H](Cc1c[nH]c2ccccc12)C(=O)N[C@@H](CC(C)C)C(=O)N[C@@H](CCC(=O)O)C(=O)N[C@@H](CC(=O)O)C(=O)N[C@@H](CCC(=O)O)C(=O)O)C(C)C [Compound A100]	> 200					> 1		>69	> 1	120 ± 39	
CC(C)C[C@H](NC(=O)[C@H](Cc1c[nH]c2ccccc12)NC(=O)[C@H](CCCCN)NC(=O)[C@@H](NC(=O)[C@H](Cc1ccccc1)NC(=O)[C@H](CCC(=O)O)NC(=O)[C@H](CCC(N)=O)NC(=O)[C@H](C)NC(=O)[C@H](CCCNC(=N)N)NC(=O)[C@H](CCCCN)NC(=O)C(C)(C)NC(=O)[C@H](CC(=O)O)NC(=O)[C@H](CC(C)C)NC(=O)[C@H](Cc1ccc(O)cc1)NC(=O)[C@H](CCCCN)NC(=O)[C@H](CO)NC(=O)[C@H](Cc1c[nH]cn1)NC(=O)[C@H](CC(=O)O)NC(=O)[C@H](CO)NC(=O)[C@@H](NC(=O)[C@H](Cc1ccccc1)NC(=O)[C@@H](NC(=O)CNC(=O)[C@H](Cc1c[nH]cn1)NC(=O)CNC(=O)[C@@H](N)Cc1ccc(O)cc1)[C@@H](C)O)[C@@H](C)O)C(C)C)C(=O)N[C@@H](CCC(=O)O)C(=O)N[C@@H](CC(=O)O)C(=O)N[C@@H](CCC(=O)O)C(=O)O [Compound A101] (H-YGHGTFTSDHSKYLD[Aib]KRAQEFVKWLEDE-OH; N-terminus assumed)	> 200					> 1		>50	> 1	88.3 ± 9.0	0.00501
CC(C)C[C@H](NC(=O)[C@H](Cc1c[nH]c2ccccc12)NC(=O)[C@H](CCCCN)NC(=O)[C@@H](NC(=O)[C@H](Cc1ccccc1)NC(=O)[C@H](CCC(=O)O)NC(=O)[C@H](CCC(N)=O)NC(=O)[C@H](C)NC(=O)[C@H](CCCNC(=N)N)NC(=O)[C@H](CCCCN)NC(=O)C(C)(C)NC(=O)[C@H](CC(=O)O)NC(=O)[C@H](CC(C)C)NC(=O)[C@H](Cc1c[nH]c2ccccc12)NC(=O)[C@H](CCCCN)NC(=O)[C@H](CO)NC(=O)[C@H](Cc1ccc(O)cc1)NC(=O)[C@H](CC(=O)O)NC(=O)[C@H](CO)NC(=O)[C@@H](NC(=O)[C@H](Cc1ccccc1)NC(=O)[C@@H](NC(=O)CNC(=O)[C@H](Cc1c[nH]cn1)NC(=O)[C@H](CO)NC(=O)[C@@H](N)Cc1ccc(O)cc1)[C@@H](C)O)[C@@H](C)O)C(C)C)C(=O)N[C@@H](CCC(=O)O)C(=O)N[C@@H](CC(=O)O)C(=O)N[C@@H](CCC(=O)O)C(=O)O [Compound A102] (H-YSHGTFTSDYSKWLD[Aib]KRAQEFVKWLEDE-OH; N-terminus assumed)	> 200					> 1		>51	> 1	97.2 ± 6.3	
